Where a chain is given by its changes, count along the chain named. Where a SMILES comes first, the peptide text is derived from it.
Experiments:
R282K-PepT1 = molecular target: T1, R282K-PepT1 (Oryctolagus cuniculus, UniProt P36836, R282K); test: Inhibition of [3H]-D-Phe-L-Gln uptake into Xenopus oocytes expressing R282K-PepT1 (competition, Ki); type: cell-based, rabbit; details: pHout 5.5, 0.4 μM [3H]-D-Phe-L-Gln
T1 construct: expressed in transfected cells; host or cells: Xenopus laevis oocytes injected with cRNA
T1 sequence (P36836 1-707 R282K): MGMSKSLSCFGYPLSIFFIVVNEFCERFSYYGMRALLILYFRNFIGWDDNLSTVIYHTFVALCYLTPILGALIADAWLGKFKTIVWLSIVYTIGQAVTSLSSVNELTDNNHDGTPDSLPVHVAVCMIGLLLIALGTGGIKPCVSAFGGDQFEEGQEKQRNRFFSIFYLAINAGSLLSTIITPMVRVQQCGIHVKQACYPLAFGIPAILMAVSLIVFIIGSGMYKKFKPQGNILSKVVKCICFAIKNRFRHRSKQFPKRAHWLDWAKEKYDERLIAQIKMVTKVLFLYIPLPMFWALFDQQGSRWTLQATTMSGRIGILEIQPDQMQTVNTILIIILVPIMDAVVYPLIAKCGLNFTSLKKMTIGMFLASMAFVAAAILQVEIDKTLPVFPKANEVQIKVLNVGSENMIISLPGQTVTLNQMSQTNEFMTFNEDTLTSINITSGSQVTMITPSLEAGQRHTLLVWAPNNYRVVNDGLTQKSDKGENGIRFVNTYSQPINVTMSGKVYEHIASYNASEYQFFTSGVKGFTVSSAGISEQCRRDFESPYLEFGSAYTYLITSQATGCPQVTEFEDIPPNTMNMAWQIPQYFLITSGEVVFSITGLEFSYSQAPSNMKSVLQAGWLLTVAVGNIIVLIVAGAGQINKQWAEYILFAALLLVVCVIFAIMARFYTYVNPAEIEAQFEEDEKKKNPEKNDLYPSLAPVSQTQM
Experimental: (§1) Zero-trans uptake of [^3H]-D-Phe-L-Gln (17.4 Ci/mmole, custom synthesised, Cambridge Research Biochemicals, Stockton-on-Tees, UK) was performed as previously described ([Meredith, 2004]). Briefly, 5 oocytes were incubated in 100 μl of uptake medium (95 mM NaCl, 2 mM KCl, 1 mM CaCl2, 0.42 mM MgCl2, 10 mM Tris/Hepes pH 7.4 or Tris/Mes pH 5.5) with tracer (0.4 μM) [^3H]-D-Phe-L-Gln. After incubation, the oocytes were washed sequentially five times in 1 ml of ice-cold 120 mM NaCl solution, lysed individually with 100 μl 2% (w/v) SDS and liquid scintillation counted. As a control non-injected oocytes were also incubated in uptake medium with [^3H]-D-Phe-L-Gln as above.
The affinity of wild-type and mutant PepT1 were assessed by competition studies with 0.4 μM [^3H]-D-Phe-L-Gln and Gly-L-Gln present in the uptake medium in concentrations from 0 to 2 mM using the protocol above, and the Ki calculated using the method of [Deves and Boyd (1989)].

wild-type PepT1 = molecular target: T2, wild-type PepT1 (Oryctolagus cuniculus, UniProt P36836); test: Diethylpyrocarbonate inhibition of PepT1-mediated dipeptide uptake and protection by substrates; type: cell-based, rabbit; details: 5 mM present during 1 mM DEPC incubation (15 min), uptake measured over 1 h
T2 construct: expressed in transfected cells; host or cells: Xenopus laevis oocytes injected with cRNA
T2 sequence (P36836 1-707): T1 sequence (P36836 1-707 R282K) with K282R
Experimental: as §1
Diethylpyrocarbonate (DEPC) inhibition of PepT1 was performed using a similar protocol to that of [Terada, Saito, and Inui (1998)]. Briefly, PepT1 oocytes were preincubated with 1 mM DEPC for 15 min at pHout 5.5 in the absence or presence of the PepT1 substrates Gly-L-Gln, N-Acetyl-Phe ([Meredith et al., 2000]), and L-Ala-Tyramine (custom synthesised) and the non-substrate Tyr (all 5 mM). The oocytes were then washed in uptake medium before uptake assays were performed as detailed above.

In the case of `NCC(=O)N[C@@H](CCC(N)=O)C(=O)O` [Gly-L-Gln] (H-Gly-Gln-OH), the Ki (R282K-PepT1) is reported as 480 ± 260 µM and the “protection of PepT1 from DEPC inhibition” value (wild-type PepT1) is reported as “largely prevented”.

Source: paper PMC2267855, “Site-directed mutagenesis of Arginine282 suggests how protons and peptides are co-transported by rabbit PepT1” (The International Journal of Biochemistry & Cell Biology, 2008)
